We go through one compound from US7622275B2, “Aequorin as a growth marker in yeast” (Sanofi-Aventis Deutschland GmbH, priority 2001, dated 2009).

Where two headings read alike, the source gives them in different places.

Data set [1] has as its system S. cerevisiae.
For data set [2], the system named is S. cerevisiae. Kind of data set: Aequorin growth marker signal upon toxic treatment (pYX132TPI-AEQ strain). It is filed as cell-based, Saccharomyces cerevisiae. The following applies: for Aequorin signal: 100 μM in SC Glucose-Trp; for Aequorin difference between toxic treatment and normal growth: 100 μM. The method, then: As a yeast strain W303 MAT a, far::hisG, sst2::URA3^FOA, fus1::HIS3 was used.
The cells are distributed and/or grown in a white 96-well plate, in a volume of 100 μl.
30 minutes before the measurement time point, 10 μl of a 5 μM coelenterazine (Molecular Probes) solution is distributed in each well (to obtain a 0.5 μM final concentration) to load the cells.
The plate is then incubated at 30° C. for the last 30 minutes.
Aequorin detection is made in a luminometer with injecting system (Luminoskan, Labsystems). For each well, immediately after injection of a 10 mM CaCl2 solution (1 M CaCl2 diluted in lysis buffer Y-PER from Pierce), the luminescent signal is integrated for 15 seconds.
To avoid the intermediate step of loading, it is possible to introduce coelenterazine in the medium at the beginning of the assay: coelenterazine is added at a concentration of 0.5 μM.
(i.e. only half of the normal signal), and the starving cells give a signal of 64 r.l.u.

In data set [3] the test system is S. cerevisiae. The following applies: 100 μM in SC Glucose-Trp.

For `O=C1Cc2cc(CCN3CCN(c4nsc5ccccc45)CC3)c(Cl)cc2N1` [Ziprasidone], in the data set with S. cerevisiae [1], the “toxic effects on S. cerevisiae” value is recorded as “high toxic effects”. Further, the OD630 with S. cerevisiae [1] (100 μM in SC Glucose-Trp, after 24 hours treatment, normal growth over 1) is on record as 0.5-0.7. The Aequorin signal in the data set on S. cerevisiae [2] (after 5 hours of treatment, normal growth 138, starving cells 16) turned out to be 10 r.l.u; in the data set on S. cerevisiae [2] (after 24 hours treatment, normal growth 175), 50 r.l.u. The “Aequorin difference between toxic treatment and normal growth” value in the data set with S. cerevisiae [2] (after 5 hours of treatment) was 10 fold; in the data set on S. cerevisiae [2] (after 24 hours treatment) it was 3.5 fold. Also, the β-Galactosidase signal worked out at 116 r.l.u in the data set on S. cerevisiae [3] (after 5 hours of treatment, normal growth 276, starving cells 64) and 1923 r.l.u in the data set with S. cerevisiae [3] (after 24 hours treatment, non treated cells 2275).
